In article PMC12138661, “Anti-Trypanosoma cruzi Effect of Fatty Acids from Porcelia macrocarpa Is Related to Interactions of Cell Membranes at Different Microdomains as Assessed Using Langmuir Monolayers” (ACS Omega, 2025):
≈ marks a conversion by molar mass, not a printed value.

Assays:
[1] = system: trypomastigote forms of T. cruzi; design: method as in number not given; conditions: previous studies; ref number not given; cited from earlier work
[2] = system: T. cruzi epimastigotes; design: method as in number not given; conditions: literature data; ref number not given; cited from earlier work
[3] = system: amastigote forms of L. (L.) infantum; design: method as in number not given; conditions: previous studies; ref number not given; cited from earlier work
[4] = system: amastigote forms of T. cruzi; assay: In vitro EC50 against intracellular amastigote forms of T. cruzi in peritoneal macrophages (Giemsa, infection index); format: cell-based; conditions: Trypanosoma cruzi, Peritoneal macrophage; intracellular amastigotes, 48 h; read-out: T. cruzi EC50 AMA
Protocol: After collecting and counting the cells, they were seeded in Nunc brand 16-well plates and incubated for 18 h at 37 °C in an incubator containing 5% CO2. Nonadherent cells were then removed by washing with RPMI-1640 medium. Subsequently, the cells were infected with trypomastigotes at a ratio of 10:1 per well during an incubation period of 4 h. The mixture of compounds, previously diluted in series, was added and incubated for 48 h to determine the EC50 against amastigotes. After the incubation phase, the glass slides were fixed using MeOH for 5 min and then stained with Giemsa for 7 min. This procedure allowed for observation under a light microscope. The infection index was obtained in 200 macrophages/slide according to the formula: infected macrophages × number of amastigotes/total number of macrophages. Benznidazole was used as a standard drug. ,

[5] = Cytotoxicity against mammalian cells (MTT); format: cell-based; conditions: mouse, NCTC clone 929 fibroblasts, NCTC clone 929 murine fibroblasts
Protocol: The cytotoxicity of the mixture of 1–10 was examined in cells of the NCTC lineage (clone 929) at a density of 6 × 10^4 cells per well. The cells were cultivated in 96-well plates containing different concentrations of the mixture, serially diluted using RPMI 1640 medium supplemented with 10% fetal bovine serum (FBS). Incubation took place over 48 h, in an incubator maintained at 37 °C with 5% CO2. The cell viability of NCTC cells (clone 929) was subsequently evaluated using the MTT colorimetric assay.

[6] = system: trypomastigote forms of T. cruzi (strain Y); assay: In vitro EC50 against trypomastigote forms of T. cruzi (resazurin viability); format: cell-based; conditions: Trypanosoma cruzi; trypomastigotes, 24 h; read-out: T. cruzi EC50 TRYPO
Protocol: Trypomastigote forms (strain Y) of T. cruzi were obtained from Swiss mice (Mus musculus) previously infected intraperitoneally. The trypomastigote forms were used to infect LLC-MK2 cell cultures consisting of Macaca mulatta kidney epithelial cells (ATCC CCL 7) grown in RPMI-1640 medium containing 2% fetal bovine serum (FBS). The infected cell cultures were maintained in an incubator at 37 °C with 5% CO2, as previously described. , To evaluate the 50% effective concentration (EC50) against the trypomastigote forms of T. cruzi, mixture 1–10 was serially solubilized in the RPMI-1640 culture medium in 96-well plates. Subsequently, the trypomastigote forms of T. cruzi were added, at a concentration of 1 × 10^6 trypomastigotes per well. After an incubation period of 24 h at 37 °C with 5% CO2, to determine the viability of trypomastigotes, 20 μL of 10% Alamar Blue (resazurin) was added, followed by a new incubation of the plates for 20 h under the same conditions. At the end of the tests, the plates were read by absorption using a microplate spectrophotometer (Filter Max F5 Multi-Mode Microplate Reader) at 570 nm, as previously described. Benznidazole was used as a positive control, while cells not subjected to treatment were used as a negative control.

[7] = system: mammalian cells; design: method as in number not given; conditions: literature data; ref number not given; cited from earlier work
[8] = system: T. cruzi; design: method as in number not given; conditions: literature data; ref number not given; cited from earlier work

CCCCCCCCC#CCCCCCCCC(=O)O [9-octadecinoic acid]
activity against trypomastigote forms of T. cruzi [1]: effective results
inhibition of growth of T. cruzi epimastigotes [2]: inhibitory capacity

C=CCCCCCCC#CCCCCCCCCCCCC(=O)O [Compound 2, docos-21-en-13-inoic acid]
in vitro activity against amastigote forms of L. (L.) infantum [3]: in vitro activity

O=C(Cn1ccnc1[N+](=O)[O-])NCc1ccccc1 [benznidazole]
EC50 [4]: 0.9 ± 0.2 µg/mL (≈ 3.46 µM)
CC50 at 48 h [5]: > 200 µg/mL
EC50 [6]: 3.9 ± 1.2 µg/mL (≈ 15 µM)

CCCC#CC#CCCCCCCCCCCC(=O)O [macrocarpathic acid, 12,14-octadecadiinoic acid]
cytotoxic effect on mammalian cells [7]: cytotoxic effect

CCCCCCCCCCCCCCCCCC(=O)O [stearic acid]
activity against T. cruzi [8]: inactivity
